Marks after values point to notes of the source that are not given here.
What was measured:
human 5-HT3 receptor = target: T1, human 5-HT3 receptor (Homo sapiens, UniProt P46098); test: 5-HT3 receptor binding
T1 sequence (P46098 24-478): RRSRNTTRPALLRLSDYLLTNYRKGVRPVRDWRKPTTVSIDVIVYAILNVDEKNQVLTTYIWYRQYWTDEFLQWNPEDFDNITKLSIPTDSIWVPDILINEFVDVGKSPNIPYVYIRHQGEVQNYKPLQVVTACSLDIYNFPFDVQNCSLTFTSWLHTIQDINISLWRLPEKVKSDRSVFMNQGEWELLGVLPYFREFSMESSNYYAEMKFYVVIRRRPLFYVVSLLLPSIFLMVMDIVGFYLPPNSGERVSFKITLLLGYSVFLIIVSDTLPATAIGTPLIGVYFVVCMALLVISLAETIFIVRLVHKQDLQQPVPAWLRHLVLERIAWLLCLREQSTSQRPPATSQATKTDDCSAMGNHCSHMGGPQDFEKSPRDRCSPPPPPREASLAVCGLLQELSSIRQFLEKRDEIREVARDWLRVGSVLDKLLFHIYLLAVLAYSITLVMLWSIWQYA

[1] = Study S.241.1.103: 14C mass balance, 8 mg oral and IV; assay type: in vivo, human
Protocol: The extent of absorption, distribution, metabolism, and elimination of cilansetron has been examined in an open-label, randomized, two period, crossover, mass balance study in 6 healthy male subjects who were treated with a single oral and single […] (30-minute infusion) of 8 mg ^14C-labeled (50 K μCi) cilansetron, with a washout of at least 2 weeks between periods. The ^14C-cilansetron was appropriately labeled in the aromatic ring and the label was therefore not metabolically labile. Serial blood samples, urine collection, and fecal collection were performed up to 144 hours following each dose. ^14C-radioactivity was measured in plasma, whole blood, urine, and feces, and unchanged cilansetron was measured in plasma and urine. Identification of metabolites of cilansetron was performed in plasma, urine, and feces. The results of this study are presented in Table 2.7.2.3.15 and the mean concentration-time plots for ^14C-radioactivity and unchanged cilansetron are shown in FIG. 24 and FIG. 25.
Cilansetron and metabolite profiles in plasma, urine, and feces were evaluated using HPLC separation followed by determination of radioactivity using scintillation counting. Cilansetron, (4R)-hydroxy cilansetron, and (4S)-hydroxy cilansetron accounted for 29.3%, 25.7%, and 13.8% of the total radioactivity, respectively, in plasma at 6 hours after oral administration, and for 46.2%, 20.0% and 14.1%3 of the total radioactivity in plasma at 3 hours after IV administration. The cumulative percent of cilansetron and 4-hydroxy metabolites excreted in urine over a 48-hour interval following dosing was 0.5% and 32.8% of the dose, respectively, following oral dosing, and 1.1% and 31.9% of the dose following IV dosing. In the case of fecal excretion over a 96-hour postdose, cilansetron, (4R)-hydroxy cilansetron, and (4S)-hydroxy cilansetron accounted for 1.2%, 6.9%, and 4.6% of the dose following oral administration, and 1.3%, 5.1%, and 11.3% of the dose following IV administration.

[2] = Study S.241.1.109: interaction with fluvoxamine 50 mg QD; assay type: in vivo, human; details: for AUC(0-τ) / Cmax / Tmax: steady state; for AUC(0-τ): AUC(0-8); for AUC(0-τ) / Cmax: arith. mean; for Tmax: median; for AUC(0-τ) Ratio (Treatment B/A) / Cmax Ratio (Treatment B/A): cilansetron + fluvoxamine / cilansetron alone, ANOVA of log-transformed data
Protocol: (§1) In an open-label, randomized, parallel-group study in three groups of 12 healthy, male and female subjects (aged 19 to 45 years), subjects received a 2 mg single dose of cilansetron on Day 1, 2 mg TID on Days 2-13, and a 2 mg single dose on Day 14. […] All morning doses of cilansetron and enzyme inhibitors were administered immediately after a standard breakfast. […] For each treatment group, log-transformed cilansetron AUC(0-τ) and Cmax values on Day 14 (cilansetron+enzyme inhibitor) were compared statistically versus values on Day 7 (cilansetron alone).
FIG. 42, FIG. 43, and FIG. 44 present geometric mean steady-state plasma concentration-time profiles for cilansetron and its 4-hydroxy metabolites in the absence and presence of concomitant fluvoxamine.

[3] = Study S.241.1.109: interaction with paroxetine 20 mg QD; assay type: in vivo, human; details: for AUC(0-τ) / Cmax / Tmax: steady state; for AUC(0-τ): AUC(0-8); for AUC(0-τ) / Cmax: arith. mean; for Tmax: median; for AUC(0-τ) Ratio (Treatment B/A) / Cmax Ratio (Treatment B/A): cilansetron + paroxetine / cilansetron alone, ANOVA of log-transformed data
Protocol: as §1
FIG. 50, FIG. 51, and FIG. 52 present geometric mean steady-state plasma concentration-time profiles for cilansetron and its 4-hydroxy metabolites in the absence and presence of concomitant paroxetine. […] These increases in exposure are not clinically significant.

[4] = Study S.241.1.109: single and multiple dose pharmacokinetics 2 mg TID; assay type: in vivo, human; details: for AUC accumulation ratio Day 7/Day 1: AUC(0-τ); for Linearity Ratio: AUC(0-τ) Day 7 to AUC(0-inf) Day 1; for Tmax: median (min, max); for Accumulation following TID dosing (mean increase): Day 7:Day 1, AUC(0-τ) and Cmax; for Time of peak concentration: after cilansetron dosing; for half-life: approximate mean; for AUC(0-τ) (Day 7) to AUC(0-inf) (Day 1) mean ratio / Cmax accumulation ratio Day 7/Day 1: human
Protocol: In an open-label, randomized, parallel-group study in 36 healthy, male and female subjects (19-45 years), subjects received a 2 mg single dose of cilansetron on Day 1 and 2 mg TID on Days 2-7. The morning doses on Days 1 and 7 were administered immediately after a standard breakfast. Serial blood samples for the measurement of single-dose and steady-state pharmacokinetics of cilansetron and its main metabolites, (4R)-hydroxy cilansetron and (4S)-hydroxy cilansetron, were collected on Day 1 (single dose) up to 24 hours postdose and on Day 7 (multiple dose) up to 8 hours postdose.

human P-glycoprotein = target: T2, human P-glycoprotein (Homo sapiens, UniProt P08183); test: Study K.241.6026: in vitro transport by P-glycoprotein in PK 1 LLC MDR cells; assay type: in vitro ADME; details: arithmetic mean percentages transported, 3 hours of incubation
T2 construct: expressed in transfected cells; host or cells: PK 1 LLC MDR cells (LLC-PK1 porcine kidney cells expressing human MDR1, by own knowledge)

[5] = 3 hours after IV administration
[6] = 6 hours after oral administration
[7] = Cilansetron 2 mg TID + Fluvoxamine 50 mg once daily
[8] = Cilansetron 2 mg TID alone (fluvoxamine group)
[9] = Cilansetron 2 mg TID + Paroxetine 20 mg QD
[10] = Cilansetron 2 mg TID alone (paroxetine group)

T2 sequence (P08183 whole entry): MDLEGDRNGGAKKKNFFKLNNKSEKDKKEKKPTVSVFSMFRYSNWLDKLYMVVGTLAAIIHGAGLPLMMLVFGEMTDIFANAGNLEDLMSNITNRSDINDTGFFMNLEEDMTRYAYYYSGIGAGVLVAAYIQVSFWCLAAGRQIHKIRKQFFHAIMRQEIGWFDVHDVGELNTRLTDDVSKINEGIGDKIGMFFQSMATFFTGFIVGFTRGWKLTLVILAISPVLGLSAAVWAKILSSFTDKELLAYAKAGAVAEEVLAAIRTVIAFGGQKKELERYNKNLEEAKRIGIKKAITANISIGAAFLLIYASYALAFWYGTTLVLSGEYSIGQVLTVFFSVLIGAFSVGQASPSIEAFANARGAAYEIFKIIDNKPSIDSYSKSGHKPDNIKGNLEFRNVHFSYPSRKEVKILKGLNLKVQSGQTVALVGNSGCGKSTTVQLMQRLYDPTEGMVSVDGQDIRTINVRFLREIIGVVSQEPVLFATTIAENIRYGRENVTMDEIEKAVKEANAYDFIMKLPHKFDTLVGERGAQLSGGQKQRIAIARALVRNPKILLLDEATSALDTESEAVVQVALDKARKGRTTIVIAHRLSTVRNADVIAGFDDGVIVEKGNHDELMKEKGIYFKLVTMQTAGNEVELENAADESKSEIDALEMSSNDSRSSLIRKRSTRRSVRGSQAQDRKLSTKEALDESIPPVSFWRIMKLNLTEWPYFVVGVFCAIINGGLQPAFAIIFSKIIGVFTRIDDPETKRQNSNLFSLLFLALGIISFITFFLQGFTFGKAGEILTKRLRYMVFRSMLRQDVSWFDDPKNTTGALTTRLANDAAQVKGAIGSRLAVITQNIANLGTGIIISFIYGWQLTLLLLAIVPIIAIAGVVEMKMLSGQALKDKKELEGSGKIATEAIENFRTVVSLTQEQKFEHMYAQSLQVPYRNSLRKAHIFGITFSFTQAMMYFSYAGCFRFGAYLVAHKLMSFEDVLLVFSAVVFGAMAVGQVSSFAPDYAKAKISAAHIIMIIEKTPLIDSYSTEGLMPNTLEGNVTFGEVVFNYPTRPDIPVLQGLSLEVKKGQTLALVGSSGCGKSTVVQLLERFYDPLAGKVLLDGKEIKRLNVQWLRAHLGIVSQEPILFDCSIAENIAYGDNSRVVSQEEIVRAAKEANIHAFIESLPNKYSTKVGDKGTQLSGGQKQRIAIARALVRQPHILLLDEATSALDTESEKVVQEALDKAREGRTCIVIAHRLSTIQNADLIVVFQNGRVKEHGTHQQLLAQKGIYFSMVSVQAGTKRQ

In the case of `Cc1nccn1CC1CCc2c(c3cccc4c3n2CC[C@H]4O)C1=O` (stereo partly drawn) [(4R)-hydroxy cilansetron], the pKi (human 5-HT3 receptor) is reported as 8.5, the “Share of total radioactivity in plasma” value [1, 5] is reported as 20.0% and the “Share of total radioactivity in plasma” value [1, 6] is reported as 25.7%. The “Fecal excretion over 96 hours” value ([1]; IV) was 5.1 % of the dose, the “Fecal excretion over 96 hours” value ([1]; oral) was 6.9 % of the dose and the “AUC(0-τ)” value [2, 7] was 9.57 ng·h/mL. For the same compound, the Cmax [2, 7] was 1.63 ng/mL, the Tmax [2, 7] was 0.75 h and the “AUC(0-τ)” value [2, 8] was 12.9 ng·h/mL. For the same compound, the Cmax [2, 8] was 2.74 ng/mL, the Tmax [2, 8] was 1.75 h and the “AUC(0-τ) Ratio (Treatment B/A)” value [2] was 76%. The “Cmax Ratio (Treatment B/A)” value [2] was 60%, the “Mean AUC decrease with fluvoxamine” value ([2]; human, in vivo) was 24% and the “Mean Cmax decrease with fluvoxamine” value ([2]; human, in vivo) was 40%. For the same compound, the “AUC(0-τ)” value [3, 9] was 15.2 ng·h/mL, the Cmax [3, 9] was 3.41 ng/mL and the Tmax [3, 9] was 1.50 h. The “AUC(0-τ)” value [3, 10] was 13.5 ng·h/mL, the Cmax [3, 10] was 2.76 ng/mL and the Tmax [3, 10] was 2.50 h. The “AUC(0-τ) Ratio (Treatment B/A)” value [3] was 116%, the “Cmax Ratio (Treatment B/A)” value [3] was 127% and the “Mean AUC increase with paroxetine” value ([3]; human, in vivo) was 16%. The “Mean Cmax increase with paroxetine” value ([3]; human, in vivo) was 27%, the “AUC(0-τ)” value ([4]; 2 mg TID, Day 7) was 12.9 (18) ng · h/mL and the Cmax ([4]; 2 mg TID, Day 7) was 2.66 (22) ng/mL. For the same compound, the “AUC(0-inf)” value ([4]; 2 mg single dose, Day 1) was 11.7 (18) ng · h/mL, the “AUC(0-τ)” value ([4]; 2 mg single dose, Day 1) was 8.43 (21) ng · h/mL and the Cmax ([4]; 2 mg single dose, Day 1) was 1.92 (27) ng/mL. The T½ ([4]; 2 mg single dose, Day 1) was 3.89 (15) h, the “AUC accumulation ratio Day 7/Day 1” value [4] was 147^d % and the “Linearity Ratio” value [4] was 107%. For the same compound, the Tmax ([4]; Day 1) was 2.00 (0.50, 4.00)^b h, the “Accumulation following TID dosing (mean increase)” value [4] was 35-47% and the Tmax ([4]; Day 7) was 2.00 (0.75, 4.00)^b h. The “Time of peak concentration” value [4] was “approximately 2 hours”, the half-life [4] was “approximately 4 hours” and the “AUC(0-τ) (Day 7) to AUC(0-inf) (Day 1) mean ratio” value ([4]; in vivo) was 1.07. For the same compound, the “Cmax accumulation ratio Day 7/Day 1” value ([4]; in vivo) was 135^e % and the “Membrane Passage” value (human P-glycoprotein) was 14%.
For `Cc1nccn1CC1CCc2c(c3cccc4c3n2CC[C@@H]4O)C1=O` (stereo partly drawn) [(4S)-hydroxy cilansetron], the pKi (human 5-HT3 receptor) was 8.0, the “Share of total radioactivity in plasma” value [1, 5] was 14.1% and the “Share of total radioactivity in plasma” value [1, 6] was 13.8%. For the same compound, the “Fecal excretion over 96 hours” value ([1]; IV) was 11.3 % of the dose, the “Fecal excretion over 96 hours” value ([1]; oral) was 4.6 % of the dose and the “AUC(0-τ)” value [2, 7] was 7.17 ng·h/mL. For the same compound, the Cmax [2, 7] was 1.07 ng/mL, the Tmax [2, 7] was 2.00 h and the “AUC(0-τ)” value [2, 8] was 7.29 ng·h/mL. The Cmax [2, 8] was 1.17 ng/mL, the Tmax [2, 8] was 3.00 h and the “AUC(0-τ) Ratio (Treatment B/A)” value [2] was 101%. The “Cmax Ratio (Treatment B/A)” value [2] was 93%, the “AUC(0-τ)” value [3, 9] was 7.62 ng·h/mL and the Cmax [3, 9] was 1.23 ng/mL. The Tmax [3, 9] was 3.00 h, the “AUC(0-τ)” value [3, 10] was 7.97 ng·h/mL and the Cmax [3, 10] was 1.22 ng/mL. For the same compound, the Tmax [3, 10] was 3.00 h, the “AUC(0-τ) Ratio (Treatment B/A)” value [3] was 99% and the “Cmax Ratio (Treatment B/A)” value [3] was 105%. For the same compound, the “AUC(0-τ)” value ([4]; 2 mg TID, Day 7) was 7.91 (19) ng · h/mL, the Cmax ([4]; 2 mg TID, Day 7) was 1.25 (18) ng/mL and the “AUC(0-inf)” value ([4]; 2 mg single dose, Day 1) was 7.42 (20) ng · h/mL. For the same compound, the “AUC(0-τ)” value ([4]; 2 mg single dose, Day 1) was 3.26 (19) ng · h/mL, the Cmax ([4]; 2 mg single dose, Day 1) was 0.605 (22) ng/mL and the T½ ([4]; 2 mg single dose, Day 1) was 7.48 (26) h. For the same compound, the “AUC accumulation ratio Day 7/Day 1” value [4] was 239^d %, the “Linearity Ratio” value [4] was 108% and the Tmax ([4]; Day 1) was 4.00 (1.50, 6.00)^b h. The “Accumulation following TID dosing (mean increase)” value [4] was 105-139%, the Tmax ([4]; Day 7) was 3.00 (1.75, 4.00)^b h and the “Time of peak concentration” value [4] was 3 to 4 h. For the same compound, the half-life [4] was roughly 7.5 h, the “AUC(0-τ) (Day 7) to AUC(0-inf) (Day 1) mean ratio” value ([4]; in vivo) was 1.08 and the “Cmax accumulation ratio Day 7/Day 1” value ([4]; in vivo) was 205^e %. For the same compound, the “Accumulation following TID dosing” value ([4]; in vivo) was “greater than 2 fold” and the “Membrane Passage” value (human P-glycoprotein) was 13%.

Source: patent US20090176817A1, “Method of Treatment of Diarrhea-Predominant Irritable Bowel Syndrome in a Subject” (priority 2005, published 2009)
